Values quoted from earlier work in patent publication US20180110888A1, “COMBINATIONS FOR THE TREATMENT OF CANCER” (BAYER PHARMA AKTIENGESELLSCHAFT, priority 2012, published 2018).

How the values were obtained:
[1] = system: CRPC (Castration Resistant Prostate Cancer) and bone metastases
[2] = single dose 250 kBq per kg body weight
[3] = phase 2 studies, patients with CRPC and bone metastases

SMILES | excreted by feces (in vivo) [%] | excreted by urine (in vivo) [%] | terminal half life (in vivo) [h] | effect of administration with food (oral administration with food) | reduction in risk of death compared with placebo ([1]; overall survival, patients with CRPC and bone metastases) [%] | median survival longer than placebo by ([1]; patients with CRPC and bone metastases) [months] | time to first skeletal-related event ([1]; versus placebo) | cases of grade 3 neutropenia [2] | observed adverse reactions [2] | safety profile (bone metastases; phase 1 and 2 studies, patients with bone metastases) | effect on disease-related biomarkers (bone ALP, PSA) (bone metastases; [3]) | effect on pain (bone metastases; [3])
C[C@]12CC[C@H](O)CC1=CC[C@@H]1[C@@H]2CC[C@]2(C)C(c3cccnc3)=CC[C@@H]12 [abiraterone] | ~88 | ~5 | 12 ± 5 | increases absorption |  |  |  |  |  |  |  | 
[Cl][223Ra][Cl] [radium-223, Radium-223 dichloride] |  |  |  |  | 30.5 | 2.8 | significantly prolonged | 1/5 | diarrhea and reversible myelosuppression | minimal myelotoxicity | improves disease-related biomarkers | reduces pain
